# Reference: paper PMC4170623, “A novel class I HDAC inhibitor, MPT0G030, induces cell apoptosis and differentiation in human colorectal cancer cells via HDAC1/PKCδ and E-cadherin” (Oncotarget, 2014)
# Like-named read-outs stand apart in the source and are kept apart here.
# Assays:
# [1] = system: total HDACs in HT-29 cells; assay: Fluorometric HDAC activity assay, total HDACs in cell lysates; settings: read-out: IC50 inhibition of total HDACs, HT-29 cells treated 24 h
# Protocol: (§2) Two different types of in vitro HDAC activity assays were used (with or without cells). Test compounds were incubated with individual recombinant HDAC isoforms (HDAC 1-9) and the assay was performed according to the manufacturer's protocol (BPS Biosciences, USA).
# HCT116 = assay: Sulforhodamine B (SRB) growth inhibition assay; assay type: cell-based, human; settings: HCT116, ± SE
# Protocol: (§1) Cells were inoculated into 96-well plates in growth medium. After 24 h, cells were fixed with 10% trichloroacetic acid (TCA), to represent a measurement of the cell population at the time of drug addition (Tz). After incubation with vehicle (0.1% DMSO) or different concentrations of compound for 48 h (Tt), cells were fixed with 10% TCA and stained with 0.4% SRB. After staining, unbound SRB was removed by 1% acetic acid. Bound SRB was solubilized with 10 mM trizma base and the absorbance was measured at 515 nm. Percentage of growth inhibition was calculated as: 100−[(Tt-Tz)/(C-Tz)] ×100. Tt represents absorbance of compound-treated group, and C means absorbance of vehicle-treated group.
# A549 = assay: Sulforhodamine B (SRB) growth inhibition assay; assay type: cell-based, human; settings: A549, ± SE
# Protocol: as §1
# Hep3B = assay: Sulforhodamine B (SRB) growth inhibition assay; assay type: cell-based, human; settings: ± SE
# Protocol: as §1
# HT-29 cells [2] = assay: Sulforhodamine B (SRB) growth inhibition assay; assay type: cell-based, human
# Protocol: as §1
# PC3 = assay: Sulforhodamine B (SRB) growth inhibition assay; assay type: cell-based; settings: Homo sapiens, PC-3; PC3, ± SE
# Protocol: as §1, with “Bound SRB was solubilized with 10 mM trizma base and the absorbance was measured at 515 nm.” left out
# HUVEC cells = assay: MTT cell viability assay in normal cells; assay type: cell-based, human; settings: 24 h
# Protocol: Then, cell viability was measured by the mitochondrial MTT reduction activity assay.
# HDAC2 = HDAC2 (Homo sapiens, UniProt Q92769); assay: Fluorometric HDAC activity assay, recombinant isoform
# Sequence of HDAC2 (Q92769 whole entry, canonical isoform): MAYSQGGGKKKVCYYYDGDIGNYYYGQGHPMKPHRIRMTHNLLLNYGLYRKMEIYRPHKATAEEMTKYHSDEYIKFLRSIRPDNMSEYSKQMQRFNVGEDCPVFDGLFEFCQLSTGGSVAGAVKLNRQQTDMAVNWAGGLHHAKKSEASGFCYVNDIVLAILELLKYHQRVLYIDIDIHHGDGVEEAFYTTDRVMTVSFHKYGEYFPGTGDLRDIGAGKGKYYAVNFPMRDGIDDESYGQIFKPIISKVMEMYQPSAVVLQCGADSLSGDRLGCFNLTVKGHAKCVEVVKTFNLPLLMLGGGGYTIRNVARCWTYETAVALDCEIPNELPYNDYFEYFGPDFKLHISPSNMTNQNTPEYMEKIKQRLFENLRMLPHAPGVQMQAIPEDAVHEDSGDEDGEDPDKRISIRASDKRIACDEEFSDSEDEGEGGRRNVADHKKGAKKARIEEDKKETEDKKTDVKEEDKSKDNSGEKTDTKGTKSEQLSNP
# Protocol: as §2
# HT-29 cells [3] = assay: MTT cell viability assay; assay type: cell-based; settings: Homo sapiens, 24 h, read-out: IC50 (cell death, MTT)
# Protocol: Cells were seeded in 96-well plates in growth medium overnight. Cells were treated with vehicle (0.1% DMSO) or different concentrations of compound for 24 h, then incubated with MTT reagent at 37°C for 1 h. After incubation, the insoluble formazan produced in living cells. The formazan crystals were dissolved with DMSO and the absorbance was measured at 550 nm.
# HDAC9 = HDAC9 (Homo sapiens, UniProt Q9UKV0); assay: Fluorometric HDAC activity assay, recombinant isoform
# Sequence of HDAC9 (Q9UKV0 whole entry, canonical isoform): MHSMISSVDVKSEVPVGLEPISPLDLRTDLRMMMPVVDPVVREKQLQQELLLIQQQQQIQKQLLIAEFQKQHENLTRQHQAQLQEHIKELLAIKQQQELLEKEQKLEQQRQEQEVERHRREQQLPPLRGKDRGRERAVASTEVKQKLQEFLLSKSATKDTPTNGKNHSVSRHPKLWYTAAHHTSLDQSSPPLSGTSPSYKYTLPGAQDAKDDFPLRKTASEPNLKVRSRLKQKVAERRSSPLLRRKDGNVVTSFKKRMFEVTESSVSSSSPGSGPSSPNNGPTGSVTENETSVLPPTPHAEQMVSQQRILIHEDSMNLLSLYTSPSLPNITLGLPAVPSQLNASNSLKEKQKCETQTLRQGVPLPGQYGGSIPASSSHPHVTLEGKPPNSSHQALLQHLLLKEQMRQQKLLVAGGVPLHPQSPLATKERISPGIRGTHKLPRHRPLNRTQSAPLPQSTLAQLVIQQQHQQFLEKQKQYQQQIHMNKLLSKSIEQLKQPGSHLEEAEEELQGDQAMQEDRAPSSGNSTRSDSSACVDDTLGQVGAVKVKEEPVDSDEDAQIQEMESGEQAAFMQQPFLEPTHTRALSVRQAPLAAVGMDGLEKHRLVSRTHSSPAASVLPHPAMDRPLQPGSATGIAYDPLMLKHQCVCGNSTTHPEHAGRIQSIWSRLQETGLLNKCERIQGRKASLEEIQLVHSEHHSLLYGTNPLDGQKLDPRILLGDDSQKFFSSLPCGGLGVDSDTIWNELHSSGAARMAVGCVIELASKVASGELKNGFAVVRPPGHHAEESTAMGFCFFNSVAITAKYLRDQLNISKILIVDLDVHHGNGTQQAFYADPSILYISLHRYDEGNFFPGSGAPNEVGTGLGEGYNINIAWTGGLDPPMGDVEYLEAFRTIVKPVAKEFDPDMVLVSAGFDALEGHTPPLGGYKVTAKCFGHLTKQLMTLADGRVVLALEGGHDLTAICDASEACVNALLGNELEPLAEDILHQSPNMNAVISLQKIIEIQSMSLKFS
# Protocol: as §2
# HT-29 tumor xenograft = HT-29 tumor xenograft model; assay type: in vivo, athymic nude mice; settings: 100 or 200 mg/kg qd by gavage, 18 days
# Protocol: Tumor volumes were calculated using caliper measurements twice per week using the formula volume (mm^3) = (length × width^2)/2. Body weights were measured daily during the first week and twice per week thereafter. […] The protocols of the in vivo study were approved by the Animal Care and User Committee at National Taiwan University.
# HDAC7 = molecular target: T1, HDAC7 (Homo sapiens, UniProt Q8WUI4); assay: Fluorometric HDAC activity assay, recombinant isoform
# T1 sequence (Q8WUI4 1-952): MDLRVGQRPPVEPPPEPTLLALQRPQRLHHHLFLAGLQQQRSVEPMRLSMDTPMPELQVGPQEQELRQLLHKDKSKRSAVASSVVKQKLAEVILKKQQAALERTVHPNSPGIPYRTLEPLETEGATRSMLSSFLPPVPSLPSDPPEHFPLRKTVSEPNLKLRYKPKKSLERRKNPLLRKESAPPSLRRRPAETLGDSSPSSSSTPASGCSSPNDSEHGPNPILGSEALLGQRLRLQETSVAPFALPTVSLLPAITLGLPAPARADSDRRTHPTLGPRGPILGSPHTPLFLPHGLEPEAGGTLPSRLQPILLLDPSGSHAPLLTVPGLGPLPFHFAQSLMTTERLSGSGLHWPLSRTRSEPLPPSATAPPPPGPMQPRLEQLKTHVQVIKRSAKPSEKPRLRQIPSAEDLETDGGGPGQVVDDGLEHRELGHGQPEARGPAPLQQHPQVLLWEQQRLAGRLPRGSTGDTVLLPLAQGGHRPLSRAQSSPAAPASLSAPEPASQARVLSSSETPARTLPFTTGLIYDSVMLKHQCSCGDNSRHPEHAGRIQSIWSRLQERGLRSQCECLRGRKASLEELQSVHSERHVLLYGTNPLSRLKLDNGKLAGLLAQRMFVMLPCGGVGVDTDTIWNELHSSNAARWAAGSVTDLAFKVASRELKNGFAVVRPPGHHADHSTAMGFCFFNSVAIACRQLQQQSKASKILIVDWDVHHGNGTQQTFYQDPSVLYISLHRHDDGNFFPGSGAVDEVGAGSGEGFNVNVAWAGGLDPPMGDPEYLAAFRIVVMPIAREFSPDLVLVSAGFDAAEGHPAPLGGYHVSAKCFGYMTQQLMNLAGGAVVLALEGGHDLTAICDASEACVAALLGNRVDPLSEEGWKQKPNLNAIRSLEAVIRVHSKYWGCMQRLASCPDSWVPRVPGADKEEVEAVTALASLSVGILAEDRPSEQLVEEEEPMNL
# Protocol: as §2
# HDAC8 = molecular target: T2, HDAC8 (Homo sapiens, UniProt Q9BY41); assay: as above
# T2 sequence (Q9BY41 1-377): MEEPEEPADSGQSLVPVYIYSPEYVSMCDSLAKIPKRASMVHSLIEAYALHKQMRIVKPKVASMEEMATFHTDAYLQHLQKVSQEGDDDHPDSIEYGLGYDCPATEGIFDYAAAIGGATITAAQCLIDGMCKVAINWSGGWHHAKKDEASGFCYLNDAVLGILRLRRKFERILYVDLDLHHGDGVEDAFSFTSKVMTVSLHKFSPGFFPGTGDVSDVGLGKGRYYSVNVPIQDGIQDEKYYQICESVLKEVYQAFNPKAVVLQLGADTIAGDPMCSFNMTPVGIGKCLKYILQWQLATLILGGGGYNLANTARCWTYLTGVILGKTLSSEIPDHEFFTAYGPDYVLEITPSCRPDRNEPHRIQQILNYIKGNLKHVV
# Protocol: as §2
# HDAC1 = HDAC1 (Homo sapiens, UniProt Q13547); assay: as above
# Sequence of HDAC1 (Q13547 whole entry): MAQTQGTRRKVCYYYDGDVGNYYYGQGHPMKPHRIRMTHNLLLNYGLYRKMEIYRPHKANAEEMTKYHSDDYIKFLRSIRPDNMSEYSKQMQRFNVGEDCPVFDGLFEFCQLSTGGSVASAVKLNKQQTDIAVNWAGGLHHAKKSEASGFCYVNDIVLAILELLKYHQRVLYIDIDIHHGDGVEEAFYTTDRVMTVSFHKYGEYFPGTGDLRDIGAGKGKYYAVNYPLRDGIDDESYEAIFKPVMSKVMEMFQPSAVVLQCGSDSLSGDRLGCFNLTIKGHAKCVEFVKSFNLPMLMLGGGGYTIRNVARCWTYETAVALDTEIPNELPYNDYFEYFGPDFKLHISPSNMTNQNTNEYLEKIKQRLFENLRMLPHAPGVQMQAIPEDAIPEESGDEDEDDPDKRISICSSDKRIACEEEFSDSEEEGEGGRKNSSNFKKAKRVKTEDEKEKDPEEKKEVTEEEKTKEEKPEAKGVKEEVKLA
# Protocol: as §2
# HDAC5 = HDAC5 (Homo sapiens, UniProt Q9UQL6); assay: as above
# Sequence of HDAC5 (Q9UQL6 whole entry): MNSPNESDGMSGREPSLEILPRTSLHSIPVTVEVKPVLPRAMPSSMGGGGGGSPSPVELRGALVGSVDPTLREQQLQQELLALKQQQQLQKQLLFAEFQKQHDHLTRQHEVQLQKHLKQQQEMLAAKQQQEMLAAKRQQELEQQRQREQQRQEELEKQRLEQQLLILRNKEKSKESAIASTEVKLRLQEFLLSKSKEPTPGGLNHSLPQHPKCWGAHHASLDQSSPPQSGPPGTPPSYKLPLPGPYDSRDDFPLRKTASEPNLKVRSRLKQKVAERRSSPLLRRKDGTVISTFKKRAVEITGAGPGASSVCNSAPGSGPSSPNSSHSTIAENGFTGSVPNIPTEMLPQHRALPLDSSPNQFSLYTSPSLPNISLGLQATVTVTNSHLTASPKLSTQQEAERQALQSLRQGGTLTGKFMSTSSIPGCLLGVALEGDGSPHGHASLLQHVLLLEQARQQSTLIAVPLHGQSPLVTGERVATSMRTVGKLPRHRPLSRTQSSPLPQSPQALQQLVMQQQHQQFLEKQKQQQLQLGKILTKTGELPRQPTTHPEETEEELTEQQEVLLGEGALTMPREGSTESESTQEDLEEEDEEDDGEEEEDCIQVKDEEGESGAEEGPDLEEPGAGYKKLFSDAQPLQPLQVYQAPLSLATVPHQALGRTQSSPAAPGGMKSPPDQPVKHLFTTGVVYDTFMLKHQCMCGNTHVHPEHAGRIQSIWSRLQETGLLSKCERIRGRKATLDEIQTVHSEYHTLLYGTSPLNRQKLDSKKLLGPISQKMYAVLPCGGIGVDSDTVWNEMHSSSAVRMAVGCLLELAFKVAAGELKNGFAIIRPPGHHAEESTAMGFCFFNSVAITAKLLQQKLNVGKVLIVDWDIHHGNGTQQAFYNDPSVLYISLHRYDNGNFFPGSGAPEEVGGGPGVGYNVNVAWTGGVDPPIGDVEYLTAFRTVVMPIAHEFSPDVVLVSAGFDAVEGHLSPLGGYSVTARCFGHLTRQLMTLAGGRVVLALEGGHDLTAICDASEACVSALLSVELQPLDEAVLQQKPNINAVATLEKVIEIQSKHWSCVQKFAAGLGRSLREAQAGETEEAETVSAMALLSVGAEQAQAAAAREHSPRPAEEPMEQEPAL
# Protocol: as §2
# HDAC4 = HDAC4 (Homo sapiens, UniProt P56524); assay: as above
# Sequence of HDAC4 (P56524 whole entry): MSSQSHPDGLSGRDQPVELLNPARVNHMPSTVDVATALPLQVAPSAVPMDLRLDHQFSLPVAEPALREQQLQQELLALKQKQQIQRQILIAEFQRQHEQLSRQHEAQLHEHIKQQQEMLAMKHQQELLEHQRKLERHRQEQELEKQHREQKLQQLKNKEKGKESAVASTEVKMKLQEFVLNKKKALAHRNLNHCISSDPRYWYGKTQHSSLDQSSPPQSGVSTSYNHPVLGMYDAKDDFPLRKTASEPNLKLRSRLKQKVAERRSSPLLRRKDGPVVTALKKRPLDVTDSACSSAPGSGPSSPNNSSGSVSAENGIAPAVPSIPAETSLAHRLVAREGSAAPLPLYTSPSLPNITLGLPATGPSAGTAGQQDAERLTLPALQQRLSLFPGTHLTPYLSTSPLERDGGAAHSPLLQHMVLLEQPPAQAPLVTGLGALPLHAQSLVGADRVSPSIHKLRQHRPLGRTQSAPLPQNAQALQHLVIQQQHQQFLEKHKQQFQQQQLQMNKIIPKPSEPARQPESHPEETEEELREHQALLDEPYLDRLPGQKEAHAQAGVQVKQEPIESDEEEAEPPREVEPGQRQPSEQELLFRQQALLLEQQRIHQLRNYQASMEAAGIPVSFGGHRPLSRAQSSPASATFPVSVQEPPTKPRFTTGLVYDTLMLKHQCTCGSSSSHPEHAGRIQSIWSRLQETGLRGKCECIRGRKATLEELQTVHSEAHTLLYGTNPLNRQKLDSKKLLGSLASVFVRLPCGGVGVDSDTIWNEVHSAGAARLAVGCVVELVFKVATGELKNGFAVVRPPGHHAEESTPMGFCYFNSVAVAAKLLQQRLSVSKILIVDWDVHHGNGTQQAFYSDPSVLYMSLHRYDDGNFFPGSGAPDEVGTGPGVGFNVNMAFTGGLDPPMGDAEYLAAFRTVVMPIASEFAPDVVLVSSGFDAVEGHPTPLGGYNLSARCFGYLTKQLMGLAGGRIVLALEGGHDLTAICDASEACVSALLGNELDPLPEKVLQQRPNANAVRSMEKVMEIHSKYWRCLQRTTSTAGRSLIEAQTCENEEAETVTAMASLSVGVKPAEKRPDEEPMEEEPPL
# Protocol: as §2
# HDAC6 = molecular target: T3, HDAC6 (Homo sapiens, UniProt Q9UBN7); assay: as above
# T3 sequence (Q9UBN7 1-1215): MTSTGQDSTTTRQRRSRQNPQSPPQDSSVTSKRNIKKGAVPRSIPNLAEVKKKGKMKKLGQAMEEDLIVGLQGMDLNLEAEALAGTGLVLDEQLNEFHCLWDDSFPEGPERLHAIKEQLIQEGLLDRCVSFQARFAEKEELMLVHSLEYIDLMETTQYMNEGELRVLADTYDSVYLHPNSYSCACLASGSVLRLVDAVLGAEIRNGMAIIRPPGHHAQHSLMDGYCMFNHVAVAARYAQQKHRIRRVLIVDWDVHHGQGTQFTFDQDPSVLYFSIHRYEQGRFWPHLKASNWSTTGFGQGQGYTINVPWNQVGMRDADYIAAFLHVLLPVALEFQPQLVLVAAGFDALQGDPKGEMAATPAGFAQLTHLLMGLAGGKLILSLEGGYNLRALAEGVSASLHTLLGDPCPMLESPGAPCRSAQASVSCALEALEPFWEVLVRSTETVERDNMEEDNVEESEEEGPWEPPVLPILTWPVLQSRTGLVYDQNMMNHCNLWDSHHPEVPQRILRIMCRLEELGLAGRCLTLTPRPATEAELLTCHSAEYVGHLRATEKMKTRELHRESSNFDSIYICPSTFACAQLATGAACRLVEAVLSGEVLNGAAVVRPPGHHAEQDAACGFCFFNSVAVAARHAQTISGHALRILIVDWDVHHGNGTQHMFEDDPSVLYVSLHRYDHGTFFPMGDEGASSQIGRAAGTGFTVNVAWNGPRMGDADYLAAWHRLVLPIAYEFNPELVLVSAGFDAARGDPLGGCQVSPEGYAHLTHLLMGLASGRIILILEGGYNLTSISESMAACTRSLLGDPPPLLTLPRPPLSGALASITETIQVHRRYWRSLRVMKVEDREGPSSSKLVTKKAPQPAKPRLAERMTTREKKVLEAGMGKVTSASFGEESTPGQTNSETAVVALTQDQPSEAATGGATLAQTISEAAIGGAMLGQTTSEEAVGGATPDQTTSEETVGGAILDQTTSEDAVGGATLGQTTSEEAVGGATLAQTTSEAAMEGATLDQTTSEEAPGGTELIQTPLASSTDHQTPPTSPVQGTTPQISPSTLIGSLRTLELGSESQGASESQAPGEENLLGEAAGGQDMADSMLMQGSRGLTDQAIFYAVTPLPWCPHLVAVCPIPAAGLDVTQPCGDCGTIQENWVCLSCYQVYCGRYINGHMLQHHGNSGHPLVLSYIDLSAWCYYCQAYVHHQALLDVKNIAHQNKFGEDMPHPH
# Protocol: as §2
# HT-29 cells [4] = assay: Cell death detection ELISA (DNA fragmentation); assay type: cell-based, human; settings: 24 h, compared with SAHA
# Protocol: Cell Death Detection ELISA Kit (Roche Diagnostics, Switzerland) was used to analyze drug-induced apoptosis. […] Adherent cells were collected and the assay was performed according to the manufacturer's protocol.
# HT-29 cells [5] = system: HT-29 cells; set-up: method as in PMID 10200307; settings: cited from earlier work
compound,measurement,setting,value
"O=C(CCCCCCC(=O)Nc1ccccc1)NO [SAHA, suberanilohydroxamic acid, reference compound]",IC50,[1],29600 ± 2620 nM
same,GI50,HCT116,440 ± 30 nM
same,GI50,A549,2620 ± 1370 nM
same,GI50,Hep3B,950 ± 40 nM
same,GI50,HT-29 cells [2]; 48 h,920 ± 50 nM
"COc1ccc(S(=O)(=O)N2CCc3cc(C=CC(=O)NO)cc(N)c32)cc1 [MPT0G030, 3-[7-amino-1-(4-methoxy-benzenesulfonyl)-2,3-dihydro-1H-indol-5-yl]-N-hydroxy-acrylamide]",GI50,PC3,170 ± 10 nM
same,IC50 in normal (HUVEC) cells relative to IC50 in HT-29 cells,HUVEC cells,about thirty times higher
same,IC50,HDAC2,242 ± 47.6 nM
same,Ratio: fold x IC50 relative to HDAC1 isoform,HDAC2; HDAC2,3.22
same,IC50,HT-29 cells [3],985 ± 60 nM
same,IC50,HDAC9,> 10000 nM
same,Ratio: fold x IC50 relative to HDAC1 isoform,HDAC9; HDAC9,>130
same,Body weight,HT-29 tumor xenograft,not affected
same,IC50,HDAC7,> 10000 nM
same,Ratio: fold x IC50 relative to HDAC1 isoform,HDAC7; HDAC7,>130
same,IC50,HDAC8,3340 ± 130 nM
same,Ratio: fold x IC50 relative to HDAC1 isoform,HDAC8; HDAC8,44.55
same,IC50,HDAC1,75.1 ± 4.65 nM
same,Ratio: fold x IC50 relative to HDAC1 isoform,HDAC1; HDAC1,1
same,IC50,HDAC5,> 5000 nM
same,Ratio: fold x IC50 relative to HDAC1 isoform,HDAC5; HDAC5,>60
same,IC50,HDAC4,> 10000 nM
same,IC50,HDAC6,4368 ± 42.1 nM
same,HDAC6 IC50 of MPT0G030 as fold x IC50 of SAHA,HDAC6; HDAC6,> 55 fold
same,Ratio: fold x IC50 relative to HDAC1 isoform,HDAC6; HDAC6,58.19
same,IC50,[1],6450 ± 1390 nM
same,GI50,"HCT116; Homo sapiens, HCT-116",110 ± 20 nM
same,GI50,A549; Homo sapiens,180 ± 10 nM
same,GI50,Hep3B; Homo sapiens,140 ± 10 nM
same,GI50,"HT-29 cells [2]; Homo sapiens, HT-29, 48 h",145 ± 10 nM
same,Induction of cell apoptosis (cytoplasmic histone-associated DNA fragments),HT-29 cells [4],more effective on inducing cell apoptosis
Nc1ccccc1NC(=O)c1ccc(CNC(=O)OCc2cccnc2)cc1 [entinostat],GI50,HT-29 cells [5],1290 nM
